Values after ≈ are worked out from the molar mass of the structure shown. Where two headings read alike, the source gives them in different places. Positions of bridges follow the written chain, without caps; N, C: chain ends. Non-standard residues stand in square brackets, D forms with d. Residues, ends and D or L forms follow the SMILES beside them. *: point of attachment. Ileψ(thiazoline)Cys = CC[C@H](C)[C@H](N)C1=N[C@H](C(=O)*)CS1; dOrn = NCCC[C@@H](N)C(=O)O
What was measured:
S. coelicolor ∆vanRS = experiment: MIC on solid media, S. coelicolor ∆vanRS; assay type: cell-based, Streptomyces coelicolor; settings: MS agar plates, 10^7 CFU sonicated hyphae, 28 °C, 10 days, average of three independent experiments
Method: (§1) MICs were measured on solid media, since the standard broth dilution method used in unicellular bacteria to determine MICs by turbidity is compromised in mycelial actinomycetes by the formation of multicellular aggregates and by the coexistence of cells in different physiological states (e.g., vegetative mycelium, aerial mycelium, and spores).
(§2) Cryovials of WCBs were thawed at room temperature and used to inoculate a VSP medium for Nonomuraea spp. and Actinoplanes spp. or YEME for Streptomyces spp. in the presence or the absence of GPAs. The strains were grown to exponential phase (approximately 72 h) at 28 °C with shaking. The mycelium was harvested by centrifugation, suspended in 0.9% (w/v) NaCl, and fragmented by sonication with a Vibracell Albra sonicator 400 W [26]. […] The plates were dried and then incubated at 28 °C. MIC values were determined as the lowest antibiotic concentrations that inhibited visible growth after 10 days of incubation.

N. gerenzanensis pST30 = experiment: MIC on solid media, N. gerenzanensis pST30; assay type: cell-based, Nonomuraea gerenzanensis; settings: N. gerenzanensis pST30 (vanRSHAX cluster from A. teichomyceticus); V0.1 agar plates, 28 °C, 10 days; average of three independent experiments
Method: as §1, §2

[1] = tested on: VanX activity in N. gerenzanensis pST30; assay type: cell-based, Nonomuraea gerenzanensis; settings: for Growth time within which VanX activity responds to the inducer: N. gerenzanensis pST30, subinhibitory concentrations (vancomycin 10, teicoplanin 1.75, A40926 10 µg/mL), teicoplanin to less extent; for Effect on VanX activity (cytoplasmic fraction): N. gerenzanensis pST30 grown with 10 µg/mL vancomycin, 1.75 µg/mL teicoplanin, 10 µg/mL A40926
Method: (§3) The D,D-dipeptidase activity of VanX (Figure 1) and the D,D-carboxypeptidase activity of VanY (Figure 2) were measured by determining the amount of D-Ala released from the hydrolysis of the D-Ala-D-Ala dipeptide and of the Nε-acetyl-L-Lys-D-Ala-D-Ala tripeptide, respectively. D-Ala release was measured by using a D-amino acid oxidase coupled to a peroxidase [25, 31].
(§4) VanX-specific activity is defined as the number of nanomoles of D-Ala released by the hydrolysis of D-Ala-D-Ala dipeptide at 37 °C per minute per milligram of protein contained in cytoplasmic fractions.
(§5) S. coelicolor A3(2), its ΔvanRS mutant, A. teichomyceticus ATCC 31121, N. gerenzanensis ATCC 39727, and N. gerenzanensis pST30 were grown as described above. […] Antibiotics were added to the cultures at the moment of inoculation using concentrations calculated as the half-point of MICs (see below and Table 1), except for vancomycin (10 µg/mL) in S. coelicolor A3(2), as reported by Kwun et al. [10].
Cells were harvested by centrifugation at 3600× g for 20 min at 4 °C, and then they were suspended in 2 mL of 0.9% (w/v) NaCl per gram of cells (wet weight). All of the following manipulations were conducted at 0 to 4 °C. The mycelium was fragmented by sonication with a Sonics Vibracell VCX 130. Sonication was carried out for 5 min on ice, with cycles of 30 s with an amplitude of 90% (90% of 60 Hz), with breaks of 10 s. The samples were then centrifuged at 39,000× g for 15 min, and the supernatants (cytoplasmic fractions) were collected. An alkaline extraction of the pellets (cell debris and membrane fractions) was carried out by adapting a protocol developed previously for extracting membrane-bound proteins [25, 36]. The sedimented pellets were resuspended in ice-cold distilled water containing proteinase inhibitors (0.19 mg/mL phenylmethanesulfonyl fluoride and 0.7 µg/mL pepstatin, both purchased from Sigma-Aldrich), and then, immediately before centrifugation (28,000× g for 15 min at 4 °C), the pH was adjusted to 12 by adding an appropriate volume of 2.5 N NaOH. Immediately after centrifugation, the supernatants were neutralized to pH 7 by adding 0.5 M sodium acetate (pH 5.4). Enzymatic activities in the supernatant (cytoplasmic fractions) and in the resuspended insoluble fractions (membranes) were assayed as reported previously [36] by measuring the release of D-Ala from commercially available dipeptide (D-Ala-D-Ala, 10 mM; Sigma-Aldrich) and tripeptide (Nε-acetyl-L-Lys-D-Ala-D-Ala, 10 mM; Sigma-Aldrich).

[2] = tested on: VanY activity in N. gerenzanensis pST30; assay type: cell-based, Nonomuraea gerenzanensis; settings: for Effect on VanY activity (membrane extracts): N. gerenzanensis pST30 grown with subinhibitory concentrations of GPAs added at inoculum
Method: To determine the correlation between the antimicrobial activity of the GPAs and their ability to induce the van resistance system in actinomycetes, we followed the enzyme activities corresponding to either VanX or VanY peptidases in cells growing in liquid culture in the presence or absence of subinhibitory concentrations of GPAs (Figure 1 and Figure 2). The D,D-dipeptidase activity of VanX (Figure 1) and the D,D-carboxypeptidase activity of VanY (Figure 2) were measured by determining the amount of D-Ala released from the hydrolysis of the D-Ala-D-Ala dipeptide and of the Nε-acetyl-L-Lys-D-Ala-D-Ala tripeptide, respectively. D-Ala release was measured by using a D-amino acid oxidase coupled to a peroxidase [25, 31].
Figure 2 VanY activity in N. gerenzanensis and N. gerenzanensis pST30 grown in the absence (dotted line) or in the presence (continuous line) of subinhibitory concentrations of GPAs added at the moment of inoculum (see material and methods). VanY-specific activity is defined as the number of nanomoles of D-Ala released by the hydrolysis of Nε-acetyl-L-Lys-D-Ala-D-Ala tripeptide at 37 °C per minute per milligram of protein contained in membrane extracts. […] The values represent the averages from three independent experiments, with a standard deviation of <5%.
as §5
Cells were harvested by centrifugation at 3600× g for 20 min at 4 °C, and then they were suspended in 2 mL of 0.9% (w/v) NaCl per gram of cells (wet weight). All of the following manipulations were conducted at 0 to 4 °C. The mycelium was fragmented by sonication with a Sonics Vibracell VCX 130. […]

A. teichomyceticus = settings: for MIC, teicoplanin-induced: Actinoplanes teichomyceticus + 10 µg/ml teicoplanin; for MIC, non-induced: Actinoplanes teichomyceticus non-induced
Method: as §1, §2

N. gerenzanensis = settings: for MIC, non-induced: Nonomuraea gerenzanensis non-induced
Method: as §1, §2

[3] = tested on: VanX activity in S. coelicolor; settings: vancomycin 10 µg/mL
Method: as §3, §4, §5
Cells were harvested by centrifugation at 3600× g for 20 min at 4 °C, and then they were suspended in 2 mL of 0.9% (w/v) NaCl per gram of cells (wet weight). All of the following manipulations were conducted at 0 to 4 °C. The mycelium was fragmented by sonication with a Sonics Vibracell VCX 130. Sonication was carried out for 5 min on ice, with cycles of 30 s with an amplitude of 90% (90% of 60 Hz), with breaks of 10 s. […]

[4] = S. coelicolor, MS agar plates, 10^7 CFU sonicated hyphae, 28 °C, 10 days, average of three independent experiments
[5] = A. teichomyceticus, V0.1 agar plates, 10^7 CFU sonicated hyphae, 28 °C, 10 days, average of three independent experiments
[6] = after 72h of growth, average of three independent experiments
[7] = after 48h of growth, average of three independent experiments
[8] = N. gerenzanensis, V0.1 agar plates, 10^7 CFU sonicated hyphae, 28 °C, 10 days, average of three independent experiments
[9] = Nonomuraea gerenzanensis + 2 µg/ml A40926, after 48h of growth, average of three independent experiments
[10] = Nonomuraea gerenzanensis + 2 µg/ml A40926, after 72h of growth, average of three independent experiments

| Compound | Minimal inhibitory concentration (MIC) (S. coelicolor ∆vanRS) | Minimal inhibitory concentration (MIC) (N. gerenzanensis pST30) | Growth time within which VanX activity responds to the inducer [1] | Effect on VanX activity (cytoplasmic fraction) [1] | Effect on VanY activity (membrane extracts) [2] | Growth time at which induced VanY activity reaches its maximum value ([2]; N. gerenzanensis pST30 induced by vancomycin) | Minimal inhibitory concentration (MIC) (S. coelicolor; [4]) | Minimal inhibitory concentration (MIC) (A. teichomyceticus; [5]) | MIC, teicoplanin-induced (A. teichomyceticus; [6]) | MIC, non-induced (A. teichomyceticus; [7]) | MIC, non-induced (A. teichomyceticus; [6]) | Minimal inhibitory concentration (MIC) (N. gerenzanensis; [8]) | MIC, A40926-induced (N. gerenzanensis; [9]) | MIC, A40926-induced (N. gerenzanensis; [10]) | MIC, non-induced (N. gerenzanensis; [7]) | MIC, non-induced (N. gerenzanensis; [6]) | Change of level of VanX enzyme activity within the first 24 h from the induction [3] | Minimal inhibitory concentration (MIC) (S. coelicolor; 72 h) | Minimal inhibitory concentration (MIC) (A. teichomyceticus; 72 h) | Minimal inhibitory concentration (MIC) (N. gerenzanensis; 72 h) |
| --- | --- | --- | --- | --- | --- | --- | --- | --- | --- | --- | --- | --- | --- | --- | --- | --- | --- | --- | --- | --- |
| CN[C@H](CC(C)C)C(=O)N[C@H]1C(=O)N[C@@H](CC(N)=O)C(=O)N[C@H]2C(=O)N[C@H]3C(=O)N[C@H](C(=O)N[C@H](C(=O)O)c4cc(O)cc(O)c4-c4cc3ccc4O)[C@H](O)c3ccc(c(Cl)c3)Oc3cc2cc(c3O[C@@H]2O[C@H](CO)[C@@H](O)[C@H](O)[C@H]2O[C@H]2C[C@](C)(N)[C@H](O)[C@H](C)O2)Oc2ccc(cc2Cl)[C@H]1O [Vancomycin] | 1.25 ± 0.03 µg/mL (≈ 0.863 µM) | 20 ± 1.05 µg/mL (≈ 13.8 µM) | ≤ 48 h | induced | significantly induced | 96 h | >100 µg/mL | 90 ± 4.2 µg/mL (≈ 62.1 µM) | 90 ± 2.1 µg/mL | 90 ± 2.5 µg/mL (≈ 62.1 µM) | 90 ± 1.6 µg/mL (≈ 62.1 µM) | 20 ± 1.6 µg/mL (≈ 13.8 µM) | 32 ± 0.9 µg/mL | 32 ± 0.8 µg/mL | 20 ± 0.8 µg/mL (≈ 13.8 µM) | 20 ± 0.5 µg/mL (≈ 13.8 µM) | doubled | – | – | – |
| Ramoplanin | 0.9 ± 0.025 µg/mL | 20 ± 1.1 µg/mL | – | – | – | – | 0.9 ± 0.045 µg/mL | 20 ± 1 µg/mL | – | – | – | 20 ± 1.2 µg/mL | – | – | – | – | – | – | – | – |
| CC[C@H](C)[C@H](N)C1=N[C@H](C(=O)N[C@@H](CC(C)C)C(=O)N[C@H](CCC(=O)O)C(=O)N[C@H](C(=O)N[C@H]2CCCCNC(=O)[C@H](CC(N)=O)NC(=O)[C@@H](CC(=O)O)NC(=O)[C@H](Cc3cnc[nH]3)NC(=O)[C@@H](Cc3ccccc3)NC(=O)[C@H]([C@@H](C)CC)NC(=O)[C@@H](CCCN)NC2=O)[C@@H](C)CC)CS1 [Bacitracin] ({Ileψ(thiazoline)Cys}-L[dE]IK[dOrn]I[dF]H[dD]N; lactam 4-C (inferred); N-terminus assumed) | 0.9 ± 0.035 µg/mL (≈ 0.633 µM) | 20 ± 1.2 µg/mL (≈ 14.1 µM) | – | – | – | – | – | – | – | – | – | – | – | – | – | – | – | 0.9 ± 0.05 µg/mL (≈ 0.633 µM) | 20 ± 1.15 µg/mL (≈ 14.1 µM) | 20 ± 1.3 µg/mL (≈ 14.1 µM) |
| Teicoplanin | 1.5 ± 0.02 µg/mL | 2.75 ± 0.15 µg/mL | ≤ 48 h | induced | comparable to the basal level | – | 1.5 ± 0.025 µg/mL | 20 ± 1.5 µg/mL | 20±0.85 g/ml | 20±1 g/ml | 20±0.9 g/ml | 0.9 ± 0.01 µg/mL | 1.2±0.03 g/ml | 1.2±0.02 g/ml | 0.9±0.01 g/ml | 0.9±0.015 g/ml | – | – | – | – |

Reference: paper PMC6022977, “Specificity of Induction of Glycopeptide Antibiotic Resistance in the Producing Actinomycetes” (Antibiotics, 2018)
